According to ChEMBL document CHEMBL1777763, “Discovery of a nortropanol derivative as a potent and orally active GPR119 agonist for type 2 diabetes” (Bioorg Med Chem Lett, 2011):
The source made the active and inactive calls. The rule behind the calls is not given here.

Legend:
Rattus norvegicus [1] = test: AUC (0 to 6 hrs) in rat at 10 mg/kg, po; format: ADME, organism-based, Plasma; design: time < 6 hr, dose 10 mg/kg, route oral; conditions: in vivo
[2] = molecular target: T1, Glucose-dependent insulinotropic receptor (Mus musculus, UniProt Q7TQP3); test: Agonist activity at mouse GPR119 expressed in HEK293 cells assessed as stimulation of cMAP level by cell-based cAMP assay; format: functional
T1 sequence (Q7TQP3 whole entry): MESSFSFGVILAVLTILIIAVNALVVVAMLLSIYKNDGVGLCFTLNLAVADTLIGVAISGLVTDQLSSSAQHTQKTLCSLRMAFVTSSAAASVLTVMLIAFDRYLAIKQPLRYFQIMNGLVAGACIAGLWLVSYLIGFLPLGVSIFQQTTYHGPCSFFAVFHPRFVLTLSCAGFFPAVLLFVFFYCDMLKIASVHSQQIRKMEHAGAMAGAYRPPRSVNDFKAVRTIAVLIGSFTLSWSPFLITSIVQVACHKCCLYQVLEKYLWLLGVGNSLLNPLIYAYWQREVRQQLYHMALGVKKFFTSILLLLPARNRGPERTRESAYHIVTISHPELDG

[3] = molecular target: T2, Glucose-dependent insulinotropic receptor (Mus musculus) (UniProt Q7TQP3); test: Agonist activity at mouse GPR119 expressed in HEK293 cells assessed as maximal stimulation of cMAP level by cell-based cAMP assay relative to 21; format: functional
T2 sequence (whole entry): T1 sequence (Q7TQP3 whole entry)

Mus musculus [4] = test: Antidiabetic activity in overnight fasted mouse model assessed as blood glucose level at 3 mg/kg, po followed by 30 mins after administered 3 g/kg, po glucose by oral glucose tolerance test (reference value: 100 %); format: functional
[5] = Plasma concentration in mouse at 3 mg/kg, po after 1 hr; format: ADME, organism-based; design: dose 3 mg/kg, route oral
Rhesus monkey = test: AUC (0 to 24 hrs) in monkey at 3 mg/kg, po; format: ADME, organism-based, Macaca mulatta, Plasma; design: time < 24 hr, dose 3 mg/kg, route oral; conditions: in vivo
[6] = Tmax in monkey at 3 mg/kg, po; format: ADME, organism-based, Macaca mulatta; design: dose 3 mg/kg, route oral; conditions: rhesus monkey, in vivo
Mus musculus [7] = test: Antidiabetic activity in laen mouse model assessed as reduction in blood glucose level at 10 mg/kg, po up to 60 mins by oral glucose tolerance test; format: functional; conditions: 1 h
hERG (KCNH2) = hERG (KCNH2) (Homo sapiens, UniProt Q12809); test: Inhibition of human ERG at 10 uM
hERG (KCNH2), sequence (Q12809 whole entry): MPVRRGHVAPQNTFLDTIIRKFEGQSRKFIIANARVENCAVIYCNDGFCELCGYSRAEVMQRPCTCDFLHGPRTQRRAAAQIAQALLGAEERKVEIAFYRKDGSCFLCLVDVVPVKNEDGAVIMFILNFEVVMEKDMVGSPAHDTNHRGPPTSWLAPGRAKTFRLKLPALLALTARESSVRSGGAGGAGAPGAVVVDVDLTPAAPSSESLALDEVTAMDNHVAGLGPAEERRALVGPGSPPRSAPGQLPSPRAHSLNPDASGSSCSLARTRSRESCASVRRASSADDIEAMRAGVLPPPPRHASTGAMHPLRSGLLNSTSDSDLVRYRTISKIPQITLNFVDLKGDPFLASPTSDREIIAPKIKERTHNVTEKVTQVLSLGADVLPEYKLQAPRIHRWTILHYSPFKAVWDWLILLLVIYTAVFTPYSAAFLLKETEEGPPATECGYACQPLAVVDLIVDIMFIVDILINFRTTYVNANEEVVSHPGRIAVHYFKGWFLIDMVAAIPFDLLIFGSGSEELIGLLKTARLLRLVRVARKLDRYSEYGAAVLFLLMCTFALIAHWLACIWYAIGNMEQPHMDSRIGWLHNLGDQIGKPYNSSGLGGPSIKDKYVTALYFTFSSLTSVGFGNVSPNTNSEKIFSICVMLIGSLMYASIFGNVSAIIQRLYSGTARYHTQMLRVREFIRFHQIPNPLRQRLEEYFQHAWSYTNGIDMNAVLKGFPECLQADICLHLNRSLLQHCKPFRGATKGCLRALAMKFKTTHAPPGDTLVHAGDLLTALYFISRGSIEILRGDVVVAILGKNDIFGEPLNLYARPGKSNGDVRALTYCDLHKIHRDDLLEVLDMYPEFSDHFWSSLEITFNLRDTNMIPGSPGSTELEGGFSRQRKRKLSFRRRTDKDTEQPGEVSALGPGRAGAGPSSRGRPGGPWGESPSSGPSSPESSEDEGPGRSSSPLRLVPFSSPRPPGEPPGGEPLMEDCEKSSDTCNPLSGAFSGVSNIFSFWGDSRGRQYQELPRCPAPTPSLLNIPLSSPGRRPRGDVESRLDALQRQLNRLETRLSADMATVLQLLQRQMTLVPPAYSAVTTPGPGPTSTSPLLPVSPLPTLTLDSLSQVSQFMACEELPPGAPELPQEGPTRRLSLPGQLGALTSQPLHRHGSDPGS

[8] = molecular target: Probable G-protein coupled receptor 160 (Homo sapiens) (UniProt Q9UJ42); test: Inhibition of GPCR-1 at 10 uM
Probable G-protein coupled receptor 160 (Homo sapiens), sequence (Q9UJ42 whole entry): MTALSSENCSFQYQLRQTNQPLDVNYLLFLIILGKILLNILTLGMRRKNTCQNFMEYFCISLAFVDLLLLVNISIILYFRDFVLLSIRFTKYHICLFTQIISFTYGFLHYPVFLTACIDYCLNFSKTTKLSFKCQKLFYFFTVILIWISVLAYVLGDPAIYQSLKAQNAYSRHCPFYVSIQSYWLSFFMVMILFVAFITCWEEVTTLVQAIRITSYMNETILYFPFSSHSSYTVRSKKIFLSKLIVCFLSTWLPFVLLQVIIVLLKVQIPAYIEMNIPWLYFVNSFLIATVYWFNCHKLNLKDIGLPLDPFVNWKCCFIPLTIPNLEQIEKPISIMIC

Mus musculus [9] = test: Antidiabetic activity in laen mouse model assessed as reduction in blood glucose level at 30 mg/kg, po up to 60 mins by oral glucose tolerance test; format: functional; conditions: 1 h
Mus musculus [10] = test: Antidiabetic activity in laen mouse model assessed as reduction in blood glucose level at 3 mg/kg, po up to 60 mins by oral glucose tolerance test; format: functional; conditions: 1 h
Cytochrome P450 2C9 = Cytochrome P450 2C9 (Homo sapiens, UniProt P11712); test: Inhibition of CYP2C9; format: ADME
Cytochrome P450 2C9, sequence (P11712 whole entry): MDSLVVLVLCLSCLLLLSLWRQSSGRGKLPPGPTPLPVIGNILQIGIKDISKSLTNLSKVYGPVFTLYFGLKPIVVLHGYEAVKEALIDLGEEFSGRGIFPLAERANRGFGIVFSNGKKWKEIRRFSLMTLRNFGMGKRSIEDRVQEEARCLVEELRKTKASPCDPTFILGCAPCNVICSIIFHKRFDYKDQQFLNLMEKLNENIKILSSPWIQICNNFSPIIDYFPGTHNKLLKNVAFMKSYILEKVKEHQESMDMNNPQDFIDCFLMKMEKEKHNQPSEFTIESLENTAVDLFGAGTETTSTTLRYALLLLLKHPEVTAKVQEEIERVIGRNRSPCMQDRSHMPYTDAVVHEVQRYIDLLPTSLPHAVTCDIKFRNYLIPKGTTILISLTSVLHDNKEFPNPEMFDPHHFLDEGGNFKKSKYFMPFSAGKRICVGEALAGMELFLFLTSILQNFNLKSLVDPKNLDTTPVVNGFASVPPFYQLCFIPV

Cytochrome P450 3A4 = Cytochrome P450 3A4 (Homo sapiens, UniProt P08684); test: Inhibition of CYP3A4; format: ADME
Cytochrome P450 3A4, sequence (P08684 whole entry): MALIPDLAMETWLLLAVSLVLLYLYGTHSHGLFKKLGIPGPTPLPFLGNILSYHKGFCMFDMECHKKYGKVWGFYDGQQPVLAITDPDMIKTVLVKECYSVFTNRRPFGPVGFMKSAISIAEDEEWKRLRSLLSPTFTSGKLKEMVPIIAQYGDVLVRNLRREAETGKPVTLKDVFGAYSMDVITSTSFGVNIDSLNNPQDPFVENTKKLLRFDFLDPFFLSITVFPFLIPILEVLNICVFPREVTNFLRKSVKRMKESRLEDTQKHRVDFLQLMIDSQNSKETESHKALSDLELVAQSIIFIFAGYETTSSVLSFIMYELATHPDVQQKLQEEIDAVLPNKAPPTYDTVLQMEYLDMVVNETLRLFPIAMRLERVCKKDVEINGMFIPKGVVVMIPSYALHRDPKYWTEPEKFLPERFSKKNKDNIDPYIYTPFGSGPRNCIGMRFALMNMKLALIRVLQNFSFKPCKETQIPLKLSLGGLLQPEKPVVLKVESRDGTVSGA

[11] = Plasma concentration in lean mouse at 30 mg/kg, po after 60 mins; format: ADME, organism-based; design: dose 30 mg/kg, route oral
[12] = Plasma concentration in lean mouse at 3 mg/kg, po after 60 mins; format: ADME, organism-based; design: dose 3 mg/kg, route oral
PXR (NR1I2) = molecular target: T3, PXR (NR1I2) (Homo sapiens, UniProt O75469); test: Inhibition of human PXR transfected in HepG2 cells at 10 uM; format: cell-based; conditions: HepG2 cells transfected with human PXR
T3 sequence (O75469 whole entry): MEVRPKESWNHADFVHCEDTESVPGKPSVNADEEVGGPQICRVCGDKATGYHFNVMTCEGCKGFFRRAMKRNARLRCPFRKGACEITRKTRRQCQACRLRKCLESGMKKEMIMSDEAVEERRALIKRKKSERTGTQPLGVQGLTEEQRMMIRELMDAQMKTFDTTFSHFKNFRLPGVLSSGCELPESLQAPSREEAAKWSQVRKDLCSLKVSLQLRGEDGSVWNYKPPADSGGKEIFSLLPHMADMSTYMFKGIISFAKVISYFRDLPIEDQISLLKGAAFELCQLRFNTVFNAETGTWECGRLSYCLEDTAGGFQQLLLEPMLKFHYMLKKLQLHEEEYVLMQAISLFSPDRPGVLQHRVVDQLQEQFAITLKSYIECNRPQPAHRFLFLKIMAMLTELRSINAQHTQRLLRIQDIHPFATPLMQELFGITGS

Rattus norvegicus [13] = test: Antidiabetic activity in lean anesthetized rat hyperglycemic clamp model assessed as increase in insulin level at 1 mg/kg, iv relative to control
Cytochrome P450 2D6 = Cytochrome P450 2D6 (Homo sapiens, UniProt P10635); test: Inhibition of CYP2D6; format: ADME
Cytochrome P450 2D6, sequence (P10635 whole entry): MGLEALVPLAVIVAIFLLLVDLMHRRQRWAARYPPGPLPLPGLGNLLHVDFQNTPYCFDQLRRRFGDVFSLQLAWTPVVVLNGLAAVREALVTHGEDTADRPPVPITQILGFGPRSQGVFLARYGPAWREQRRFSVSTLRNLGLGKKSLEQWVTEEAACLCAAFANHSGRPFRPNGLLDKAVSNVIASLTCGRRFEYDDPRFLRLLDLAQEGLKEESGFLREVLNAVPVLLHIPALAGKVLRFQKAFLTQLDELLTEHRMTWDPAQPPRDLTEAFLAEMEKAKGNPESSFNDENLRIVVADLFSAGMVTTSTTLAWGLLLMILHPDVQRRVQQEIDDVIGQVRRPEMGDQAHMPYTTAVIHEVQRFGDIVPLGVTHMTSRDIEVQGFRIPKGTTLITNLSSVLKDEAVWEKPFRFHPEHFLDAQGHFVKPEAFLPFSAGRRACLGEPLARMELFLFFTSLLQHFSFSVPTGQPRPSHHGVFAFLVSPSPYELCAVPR

[14] = Cmax in monkey at 3 mg/kg, po; format: ADME, organism-based, Macaca mulatta; design: dose 3 mg/kg, route oral; conditions: rhesus monkey, in vivo
Salmonella typhimurium = test: Genotoxicity in Salmonella Typhimurium by Ames test; format: toxicity, organism-based; conditions: salmonella enterica subsp. enterica serovar typhimurium
[15] = Plasma concentration in lean mouse at 10 mg/kg, po after 60 mins; format: ADME, organism-based; design: dose 10 mg/kg, route oral

EC50 [2]	Activity [3]	SMILES	further results
68 nM	74%	Cc1c(Oc2ccccc2C#N)ncnc1O[C@H]1CC2CC[C@@H](C1)N2S(=O)(=O)C1CC1 (single isomer, unassigned)	AUC (Rattus norvegicus [1]): 0.461 µM·h; Blood glucose (% of vehicle) (Mus musculus [4]): 88%; concentration at 1 h [5]: 290 nM
324 nM	25%	CCOC(=O)N1C2CC[C@H]1C[C@@H](Oc1ncnc(Oc3cccnc3C)c1C)C2 (single isomer, unassigned)	
55 nM	20%	Cc1ncccc1Oc1ncnc(O[C@H]2CC3CC[C@@H](C2)N3C(=O)OC(C)C)c1C (single isomer, unassigned)	AUC (Rattus norvegicus [1]): 0.175 µM·h; Blood glucose (% of vehicle) (Mus musculus [4]): 100%; concentration at 1 h [5]: 193 nM
220 nM	84%	Cc1c(Nc2ccc(C#N)cc2F)ncnc1O[C@H]1CC2CC[C@@H](C1)N2S(=O)(=O)C1CC1 (single isomer, unassigned)	Blood glucose (% of vehicle) (Mus musculus [4]): 95%
> 30000 nM	12%	Cc1ncccc1Oc1ncnc(O[C@H]2CC3CC[C@@H](C2)N3C(=O)OC2(C)CC2)c1C (single isomer, unassigned)	AUC (Rattus norvegicus [1]): 2.84 µM·h; Blood glucose (% of vehicle) (Mus musculus [4]): 95%; concentration at 1 h [5]: 130 nM
290 nM	44%	Cc1c(Oc2ccc(Cl)cc2C#N)ncnc1O[C@H]1CC2CC[C@@H](C1)N2S(=O)(=O)C1CC1 (single isomer, unassigned)	
59 nM	31%	Cc1ncccc1Oc1ncnc(O[C@H]2C[C@H]3CC[C@@H](C2)N3C(=O)OC(C)C2CC2)c1C (some centres not stated)	
140 nM	110%	Cc1c(Nc2ccc(C#N)cc2Cl)ncnc1O[C@H]1CC2CC[C@@H](C1)N2S(=O)(=O)C1CC1 (single isomer, unassigned)	AUC (Rattus norvegicus [1]): 2.17 µM·h; AUC (Rhesus monkey): 16.5 µM·h; Tmax [6]: 4.5 h; inhibition in vivo at 10 mg/kg (Mus musculus [7]): 30%; inhibition at 10 µM (hERG (KCNH2)): 9%; inhibition [8]: < 30%; inhibition in vivo at 30 mg/kg (Mus musculus [9]): 39%; inhibition in vivo at 3 mg/kg (Mus musculus [10]): 28%; IC50 (Cytochrome P450 2C9): > 20000 nM; IC50 (Cytochrome P450 3A4): > 20000 nM; concentration at 1 h [11]: 1400 nM; concentration at 1 h [12]: 400 nM; inhibition at 10 µM (PXR (NR1I2)): 0.09%; Activity (Rattus norvegicus [13]): Active; IC50 (Cytochrome P450 2D6): > 20000 nM; Cmax [14]: 997 nM; Blood glucose (% of vehicle) (Mus musculus [4]): 91%; Activity (Salmonella typhimurium): Non-toxic; concentration at 1 h [15]: 800 nM; concentration at 1 h [5]: 275 nM
220 nM	52%	Cc1ncccc1Oc1ncnc(O[C@H]2C[C@@H]3CC(F)(F)[C@@H](C2)N3S(=O)(=O)C2CC2)c1C	
2000 nM	110%	Cc1ncccc1Nc1ncnc(O[C@H]2CC3CC[C@@H](C2)N3S(=O)(=O)C2CC2)c1C (single isomer, unassigned)	
82 nM	58%	Cc1c(Oc2ccccc2Cl)ncnc1O[C@H]1CC2CC[C@@H](C1)N2S(=O)(=O)C1CC1 (single isomer, unassigned)	
180 nM	80%	Cc1c(Nc2ccccc2C#N)ncnc1O[C@H]1CC2CC[C@@H](C1)N2S(=O)(=O)C1CC1 (single isomer, unassigned)	
7570 nM	33%	Cc1ncccc1Oc1ncnc(O[C@H]2CC3CC[C@@H](C2)N3C(=O)OCC2CC2)c1C (single isomer, unassigned)	
640 nM	88%	Cc1c(Nc2ccc(S(C)(=O)=O)cc2F)ncnc1O[C@H]1CC2CC[C@@H](C1)N2S(=O)(=O)C1CC1 (single isomer, unassigned)	
70 nM	69%	Cc1ncccc1Oc1ncnc(O[C@H]2CC3CC[C@@H](C2)N3S(=O)(=O)CC(C)C)c1C (single isomer, unassigned)	AUC (Rattus norvegicus [1]): 0 µM·h
300 nM	20%	Cc1ncccc1Oc1ncnc(O[C@@H]2CC3CC[C@@H](C2)N3C(=O)OC(C)(C)C)c1C (single isomer, unassigned; 20f)	
145 nM	77%	Cc1ncccc1Oc1ncnc(O[C@H]2CC3CC[C@@H](C2)N3S(=O)(=O)c2ccc(Cl)s2)c1C (single isomer, unassigned)	
52 nM	48%	Cc1ncccc1Oc1ncnc(O[C@H]2CC3C=C[C@@H](C2)N3C(=O)OC(C)C)c1C (single isomer, unassigned)	
10400 nM	20%	Cc1ncccc1Oc1ncnc(O[C@H]2CC3CC[C@@H](C2)N3C(=O)OCC(F)(F)F)c1C (single isomer, unassigned)	
820 nM	110%	Cc1c(Nc2ccc(F)cc2C#N)ncnc1O[C@H]1CC2CC[C@@H](C1)N2S(=O)(=O)C1CC1 (single isomer, unassigned)	
53 nM	49%	CCCS(=O)(=O)N1C2CC[C@H]1C[C@@H](Oc1ncnc(Oc3cccnc3C)c1C)C2 (single isomer, unassigned)	
403 nM	100%	CC(C)OC(=O)N1CCC(Oc2cc(Oc3ccc(S(C)(=O)=O)cc3F)ncn2)CC1	AUC (Rattus norvegicus [1]): 20.7 µM·h; inhibition in vivo at 30 mg/kg (Mus musculus [9]): 47%; concentration at 1 h [11]: 12700 nM; Blood glucose (% of vehicle) (Mus musculus [4]): 78%; concentration at 1 h [5]: 480 nM
350 nM	78%	Cc1ncccc1Oc1ncnc(O[C@H]2CC3CC[C@@H](C2)N3S(=O)(=O)c2ccc(F)cc2)c1C (single isomer, unassigned)	
63 nM	76%	Cc1ncccc1Oc1ncnc(O[C@H]2CC3CC[C@@H](C2)N3S(=O)(=O)C2CC2)c1C (single isomer, unassigned)	AUC (Rattus norvegicus [1]): 0.879 µM·h; Blood glucose (% of vehicle) (Mus musculus [4]): 87%; concentration at 1 h [5]: 2330 nM
26 nM	29%	CCCCS(=O)(=O)N1C2CC[C@H]1C[C@@H](Oc1ncnc(Oc3cccnc3C)c1C)C2 (single isomer, unassigned)	
240 nM	78%	Cc1ncccc1Oc1ncnc(O[C@H]2CC3C=C[C@@H](C2)N3S(=O)(=O)C2CC2)c1C (single isomer, unassigned)	
710 nM	74%	Cc1ncccc1Oc1ncnc(O[C@H]2C[C@@H]3CC(F)[C@@H](C2)N3S(=O)(=O)C2CC2)c1C (some centres not stated)	
660 nM	62%	Cc1ncccc1Oc1ncnc(O[C@H]2CC3CC[C@@H](C2)N3S(=O)(=O)CC(F)(F)F)c1C (single isomer, unassigned)	
250 nM	62%	Cc1ncccc1Oc1ncnc(O[C@H]2CC3CC[C@@H](C2)N3S(=O)(=O)CCC(F)(F)F)c1C (single isomer, unassigned)	
